# Assay results from patent US20020165197A1, “Modulation of GSK-3beta activity and its different uses” (priority 2001, published 2002).
# Experiments:
# β-catenin = assay: Western blot of tumor tissue from HCT-116 colon carcinoma bearing mice: β-catenin; format: in vivo, Balb/C nude mice; conditions: 6 μg/Kg orally every second day, 30 days
# Procedure: (§1) A similar series of studies was utilized in a colon carcinoma murine animal model to determine whether elements of the Wnt pathway altered by IB-MECA in vitro, occur as well in viro with Cl-B-MECA (another A3RAg). The animal model was generated by subcutaneous injection of 1.2×10^6HCT-116 human colon carcinoma cells to the flank of Balb/C nude mice. The mice were treated orally (by gavage), every second day with 6 μg/Kg Cl-IB-MECA.
# (§2) After 30 days the mice were sacrificed and tissue samples from the colon carcinoma foci were harvested and analyzed for the expression of β-catenin and cyclin D1.
# cyclin D1 = assay: Western blot of tumor tissue from HCT-116 colon carcinoma bearing mice: cyclin D1; format: in vivo, Balb/C nude mice; conditions: 6 μg/Kg orally every second day, 30 days
# Procedure: as §1, §2
# c-myc = assay: Western blot of tumor tissue from HCT-116 colon carcinoma bearing mice: c-myc; format: in vivo, Balb/C nude mice; conditions: 6 μg/Kg orally every second day, 30 days
# hair growth = assay: Hair growth in nude mice inoculated with HCT-116 colon carcinoma cells; format: in vivo, Nude mice (BalbC origin); conditions: 6 μg/kg body weight orally daily, 30 days
# Procedure: Nude mice (BalbC origin) were subcutaneously inoculated with HCT16 human colon carcinoma cells, which thus developed a visible tumor.
# Cl-IB-MECA was dissolved in DMSO and kept as a stock solution. in a concentration of 10 mM. Before administration to the mice, the stock solution was diluted with PBS to a concentration so that each mice received a dosage of 6 μg/kg body weight.
# Nude mice (BalbC origin) were subcutaneously inoculated wit HCT-16 human colon carcinoma cells. These mice were divided into two groups:
# Study group which was daily and orally administered with Cl-IB-MECA (6 μg/kg body weight) dissolved in DMSO and diluted with PBS.
# Control group which was daily and orally administered with DMSO only.
# HIV-1 JR-FL = assay: p24 ELISA, HIV replication in JR-FL infected astroglial cells; format: cell-based; conditions: Astroglia/JR-FL, 0.01 (μM, every 24 hours); HIV control 22.83
# Procedure: (§3) Purified primary human fetal astrocytes and microgial cells were prepared from 16 to 20 week old human fetal brain tissue by a modified procedure based on the methods of Cole and de Vellis [R. Cole and J. de Vellis. In: Protocols for neural cell cure. S. Fedoroff and A. Richardson (Eds.) Human Press, Totowa, N.J., pp. is 117-130. (1997)], and Yong and Antel [V. W. Yong and J. P. Antel. In: Protocols for neural cell culture. S. Fedoroff and A. Richardson (Eds.) Humana Press, Totowa, N.J., pp. 157-172 (1997)]. Brain tissue was washed in ice-cold Hank's Balanced Salt Solution (HBSS) containing the antibiotics gentamycin and arnphotericin B. Blood vessels and meninges were removed and the tissue was minced into small pieces. After mincing, the tissue was enzymatically dissociated by incubation in 0.05% trypsin and mechanically disrupted by passing several times over a 75 μm nylon mesh filter. […]
# (§4) Brain derived primary HIV-1 isolates SF162 and JR-FL were cultured in human peripheral blood mononuclear cells (PBMC) essentially as described by Gartner and Popovic^12. […] After stimulation, cells were infected with either SF162 or JR-FL and cultured for 7 to 10 days until high titres of MIV-1 were detected in the supernatant by p24 ELISA assay. […]
# HIV-1 SF162 = assay: p24 ELISA, HIV replication in SF162 infected astroglia; format: cell-based; conditions: Astroglia/SF-162, 0.01 (μM); HIV control 313.38
# Procedure: as §3, §4
# HIV-1 SF126 = assay: p24 ELISA, HIV replication in SF infected microglia; format: cell-based
# Procedure: Purified primary human fetal astrocytes and microgial cells were prepared from 16 to 20 week old human fetal brain tissue by a modified procedure based on the methods of Cole and de Vellis [R. Cole and J. de Vellis. In: Protocols for neural cell cure. S. Fedoroff and A. Richardson (Eds.) Human Press, Totowa, N.J., pp. is 117-130. (1997)], and Yong and Antel [V. W. Yong and J. P. Antel. In: Protocols for neural cell culture. S. Fedoroff and A. Richardson (Eds.) Humana Press, Totowa, N.J., pp. 157-172 (1997)]. Brain tissue was washed in ice-cold Hank's Balanced Salt Solution (HBSS) containing the antibiotics gentamycin and arnphotericin B. Blood vessels and meninges were removed and the tissue was minced into small pieces. After mincing, the tissue was enzymatically dissociated by incubation in 0.05% trypsin and mechanically disrupted by passing several times over a 75 μm nylon mesh filter. The resulting single cell suspension was washed, pelleted and plated at a density of 2-10×10^6 cells per 162 cm^2 flask in DMEM:F12 containing 10% fetal calf […], gentamycin, and L-glutamine. After 7-10 days of growth, microglial cells were isolated by placement on rotary shaker at 200 rpm in a 37° C. incubator overnight. The non-adherent cells were removed and allowed to attach to a new flask for 1 to 3 h. Following attachment, the cells were washed and refed with media containing 10% fetal calf serum, insulin, gentamycin, L-gluntamine, and N1 supplement. Astocyes were subeultured from adherent cells in media containing 15% fetal calf serum, insulin, gentamycin, and L-glutamine and contaminating microglia were removed by repeated rotary shaking. Cultured astrocytic and nicroglial cells were plated at a density of 2.5×10^5 per well into 6 well plates for subseqent infection.
# Brain derived primary HIV-1 isolates SF162 and JR-FL were cultured in human peripheral blood mononuclear cells (PBMC) essentially as described by Gartner and Popovic^12. PBMC were isolated from human buffy coat by ficoll gradient and plated at a density of 2.5×10^6 per ml in RPMI containing 10% fetal calf serum and gentamycin. Cells were stimulated by the addition of 5 μg/ml of phytohemagglutinin (PHA) for 48 h. After stimulation, cells were infected with either SF162 or JR-FL and cultured for 7 to 10 days until high titres of MIV-1 were detected in the supernatant by p24 ELISA assay. When viral production was optimal, the cells were pelleted, the supernatant containing HIV-1 was aliquoted and stored at −70° C. until use. P24 ELISA assay was performed on an aliquot of stock to determine the viral titre.
# Microglial or astrocytic cells (2.5×10^5) were plated per well into 6-well plates. The next day, cells were washed and refed with fresh medium. […]
# GSK-3β = assay: Western blot of GSK-3β (total and phosphorylated) in B16-F10 melanoma cell extracts; format: cell-based
# Procedure: (§5) Cells (B16-F10 melanoma cells) were maintained in RPMI medium supplemented with 10% […], 200 mM glutamine, 100 U/ml penicillin and 100 μg/ml streptomycin. They were transferred to a freshly prepared medium twice weekly. For all studies we used serum starved cells. FBS was omitted from the cultures for 18 hours and the experiment was carried out on monolayers of cells in RPMI medium supplemented with 1% FBS in a 37° C., 5% CO2 incubator.
# (§6) To detect the level of expression of PKA, GSK-3β (total and phosphorylated), PKB/Akt (total and phosphorylated), β-catenin, c-myc and cyclin D1, protein extract from IB-MECA treated or untreated serum-starved B16-F10 melanoma cells were utilized. […] Further, to mimic the chain of events occurring upon activation of A2R, cells were incubated with 8Br cAMP.
# (§7) At the end of the incubation period, cells were rinsed with ice-cold PBS and lysed in ice-cold lysis buffer (TNN buffer, 50 mM tis buffer pH=7.5, 150 mM NaCl, NP 40). Cell debris was removed by centrifugation at 7500×g for 10 min. Supernatant was utilized for Western Blot analysis. Protein concentrations were determined using the Bio-Rad protein assay dye reagent. […] Bands were recorded using BCIP/NBT color development kit (Promega, Madison, Wis., USA). […]
# B16-F10 melanoma cells = assay: [3H]-thymidine incorporation cell proliferation assay; format: cell-based; conditions: antagonist 0.01 μM added in the presence of IB-MECA
# Procedure: as §5
# [^3H]-thymidine incorporation assay as used to evaluate cell growth. B136-F10 melanom Cella (1.5×10^4/ml) were incubated with IB-MECA (0.0 μM-10 μM) in 96-well microtiter plates for 24 hours. To test whether IB-MECA exerted its effect on tumor cells through binding to A3AR, an antagonist to A3AR, MRS-1523, was added to the cell cultures in the presence of IB-MECA. Cultures of B16-F10 melanoma cells tat were incubated in the presence of MRS-1523 only, served as controls. For the last 6 h of incubation, each well was pulsed with 1 μCi [3H]-thymidine. Cells were harvested and the [^3H]-thyine uptake was determined in an LKB liquid scintillation counter (LKB, Piscataway, N.J., USA). These experiments were repeated at least 10 times.
# PKAc = assay: Western blot of PKAc in B16-F10 melanoma cell extracts; format: cell-based; conditions: antagonist 0.01 μM with IB-MECA
# Procedure: as §5, §6, §7
structure (smiles),measurement,setting,value
CNC(=O)C1OC(n2cnc3c(NCc4cccc(I)c4)nc(Cl)nc32)C(O)C1O (centres unmarked) [Cl-IB-MECA],level of β-catenin in tumor tissue,β-catenin,decrease
same,level of cyclin D1 in tumor tissue,cyclin D1,decrease
same,level of c-myc in tumor tissue,c-myc,decrease
same,hair growth on the skin,hair growth,hair grew
same,p 24 Day 5,HIV-1 JR-FL,8.45 pg/mL
same,p 24 Day 5,HIV-1 SF162,288.77 pg/mL
same,p 24 Day 10 after infection,"HIV-1 SF126; 0.01, HIV control 209.18",111.05 pg/mL
same,p 24 Day 5 after infection,"HIV-1 SF126; 0.01, HIV control 267.99",127.03 pg/mL
same,p 24 Day 10 after infection,"HIV-1 SF126; 0.1, HIV control 209.18",80.37 pg/mL
same,p 24 Day 5 after infection,"HIV-1 SF126; 0.1, HIV control 267.99",10.81 pg/mL
Nc1ncnc2c1nc(Br)n2[C@@H]1O[C@@H]2COP(=O)(O)O[C@H]2[C@H]1O [8Br cAMP],level of GSK-3β,GSK-3β; 8Br cAMP added to culture to mimic A2AR activation,decrease
CCCOC(=O)c1c(-c2ccccc2)nc(CC)c(C(=O)SCC)c1CCC [MRS-1523],effect on the inhibitory effect of IB-MECA on melanoma cell growth,B16-F10 melanoma cells,reversed the inhibitory effect of IB-MECA
same,effect on the IB-MECA induced decrease in PKAc,PKAc,reversed
same,effect on the IB-MECA induced increase in GSK-3β levels,GSK-3β; antagonist 0.01 μM with IB-MECA,reversed
